System: HIV-1 single-round infectious reporter virus
Experiment: microbe, parasite or virus in culture
Format: cell-based
Settings: for EC50: Human immunodeficiency virus 1, HeLa-CD4/CCR5, 72 h, read-out: EC50 Group from Table 1; for inhibition at 10 µM: Human immunodeficiency virus 1, HeLa-CD4/CCR5, read-out: % Inhibition @ 10 uM

SMILES | EC50 [nM] | inhibition at 10 µM [%]
O=C(C(=O)N1CCN(C(=O)c2ccccc2)CC1)c1c[nH]c2c(-c3ccccc3)ccc(F)c12 [Example 1] | < 1000 | > 98
CSc1ccccc1-c1ccc(F)c2c(C(=O)C(=O)N3CCN(C(=O)c4ccccc4)CC3)c[nH]c12 [Example 2] | < 1000 | > 98
COc1ccc(-c2ccc(F)cc2)c2[nH]cc(C(=O)C(=O)N3CCN(C(=O)c4ccccc4)CC3)c12 [Example 3] | < 1000 | > 98
COc1ccc(-c2ccc(F)c3c(C(=O)C(=O)N4CCN(C(=O)c5ccccc5)CC4)c[nH]c23)cc1 [Example 4] | < 1000 | > 98
O=C(C(=O)N1CCN(C(=O)c2ccccc2)CC1)c1c[nH]c2c(-c3ccccn3)ccc(F)c12 [Example 5] | < 1000 | > 98
O=C(C(=O)N1CCN(C(=O)c2ccccc2)CC1)c1c[nH]c2c(-c3cccnc3)ccc(F)c12 [Example 6] | < 1000 | > 98
COc1ccc(-c2ccccn2)c2[nH]cc(C(=O)C(=O)N3CCN(C(=O)c4ccccc4)CC3)c12 [Example 7] | < 1000 | > 98
COc1ccc(-c2cccnc2)c2[nH]cc(C(=O)C(=O)N3CCN(C(=O)c4ccccc4)CC3)c12 [Example 8] | < 1000 | > 98
O=C(C(=O)N1CCN(C(=O)c2ccccc2)CC1)c1c[nH]c2c(-c3cncnc3)ccc(F)c12 [Example 9] | < 1000 | > 98
COc1ccc(-c2ccco2)c2[nH]cc(C(=O)C(=O)N3CCN(C(=O)c4ccccc4)CC3)c12 [Example 11] | < 1000 | > 98
O=C(C(=O)N1CCN(C(=O)c2ccccc2)CC1)c1c[nH]c2c(-c3cccs3)ccc(F)c12 [Example 12] | < 1000 | > 98
O=C(C(=O)N1CCN(C(=O)c2ccccc2)CC1)c1c[nH]c2c(-c3ccsc3)ccc(F)c12 [Example 13] | < 1000 | > 98
O=C(C(=O)N1CCN(C(=O)c2ccccc2)CC1)c1c[nH]c2c(-c3nccs3)ccc(F)c12 [Example 14] | < 1000 | > 98
COc1ccc(-c2nccs2)c2[nH]cc(C(=O)C(=O)N3CCN(C(=O)c4ccccc4)CC3)c12 [Example 15] | < 1000 | > 98
O=C(C(=O)N1CCN(C(=O)c2ccccc2)CC1)c1c[nH]c2c(-c3ccc(Cl)s3)ccc(F)c12 [Example 16] | < 1000 | > 98
O=C(C(=O)N1CCN(C(=O)c2ccccc2)CC1)c1c[nH]c2c(-c3cnco3)ccc(F)c12 [Example 17] | < 1000 | > 98
O=C(C(=O)N1CCN(C(=O)c2ccccc2)CC1)c1c[nH]c2c(-c3nc4ccccc4o3)ccc(F)c12 [Example 18] | < 1000 | > 98
COc1ccc(-c2cc3ccccc3s2)c2[nH]cc(C(=O)C(=O)N3CCN(C(=O)c4ccccc4)CC3)c12 [Example 19] | < 1000 | > 98
O=C(C(=O)N1CCN(C(=O)c2ccccc2)CC1)c1c[nH]c2c(-c3nn[nH]n3)ccc(F)c12 [Example 20] | < 1000 | > 98
Cn1nnc(-c2ccc(F)c3c(C(=O)C(=O)N4CCN(C(=O)c5ccccc5)CC4)c[nH]c23)n1 [Example 21] | < 1000 | > 98

SMILES | EC50 [nM] | inhibition at 10 µM [%]
COC(=O)Cn1nnc(-c2ccc(F)c3c(C(=O)C(=O)N4CCN(C(=O)c5ccccc5)CC4)c[nH]c23)n1 [Example 22] | < 1000 | > 98
CCn1nnc(-c2ccc(F)c3c(C(=O)C(=O)N4CCN(C(=O)c5ccccc5)CC4)c[nH]c23)n1 [Example 23] | < 1000 | > 98
CCCn1nnc(-c2ccc(F)c3c(C(=O)C(=O)N4CCN(C(=O)c5ccccc5)CC4)c[nH]c23)n1 [Example 24] | < 1000 | > 98
O=C(C(=O)N1CCN(C(=O)c2ccccc2)CC1)c1c[nH]c2c(-c3nnn(Cc4ccccc4)n3)ccc(F)c12 [Example 25] | < 1000 | > 98
C=CCn1nnc(-c2ccc(F)c3c(C(=O)C(=O)N4CCN(C(=O)c5ccccc5)CC4)c[nH]c23)n1 [Example 26] | < 1000 | > 98
N/C(=N\O)c1ccc(F)c2c(C(=O)C(=O)N3CCN(C(=O)c4ccccc4)CC3)c[nH]c12 [Example 27] | < 1000 | > 98
O=C(C(=O)N1CCN(C(=O)c2ccccc2)CC1)c1c[nH]c2c(-c3noc(=O)[nH]3)ccc(F)c12 [Example 28] | < 1000 | > 98
COc1nc(-c2ccc(F)c3c(C(=O)C(=O)N4CCN(C(=O)c5ccccc5)CC4)c[nH]c23)no1 [Example 29] | < 1000 | > 98
O=C(C(=O)N1CCN(C(=O)c2ccccc2)CC1)c1c[nH]c2c(/C=N/O)ccc(F)c12 [Example 30] | < 1000 | > 98
O=C(O)CO/N=C/c1ccc(F)c2c(C(=O)C(=O)N3CCN(C(=O)c4ccccc4)CC3)c[nH]c12 [Example 31] | < 1000 | > 98
O=C(C(=O)N1CCN(C(=O)c2ccccn2)CC1)c1c[nH]c2c(-c3nn[nH]n3)ccc(F)c12 [Example 32] | < 1000 | > 98
C[C@@H]1CN(C(=O)c2ccccc2)CCN1C(=O)C(=O)c1c[nH]c2c(-c3nn[nH]n3)ccc(F)c12 [Example 33] | < 1000 | > 98
C[C@@H]1CN(C(=O)c2ccccn2)CCN1C(=O)C(=O)c1c[nH]c2c(-c3nn[nH]n3)ccc(F)c12 [Example 34] | < 1000 | > 98
O=C(Nc1cccnc1)c1ccc(F)c2c(C(=O)C(=O)N3CCN(C(=O)c4ccccc4)CC3)c[nH]c12 [Example 35] | < 1000 | > 98
O=C(NC1=NCCS1)c1ccc(F)c2c(C(=O)C(=O)N3CCN(C(=O)c4ccccc4)CC3)c[nH]c12 [Example 36] | < 1000 | > 98
Cc1cc(NC(=O)c2ccc(F)c3c(C(=O)C(=O)N4CCN(C(=O)c5ccccc5)CC4)c[nH]c23)on1 [Example 37] | < 1000 | > 98
O=C(Nc1ccccn1)c1ccc(F)c2c(C(=O)C(=O)N3CCN(C(=O)c4ccccc4)CC3)c[nH]c12 [Example 38] | < 1000 | > 98
O=C(Nc1ccncc1)c1ccc(F)c2c(C(=O)C(=O)N3CCN(C(=O)c4ccccc4)CC3)c[nH]c12 [Example 39] | < 1000 | > 98
O=C(NS(=O)(=O)c1ccccc1)c1ccc(F)c2c(C(=O)C(=O)N3CCN(C(=O)c4ccccc4)CC3)c[nH]c12 [Example 40] | < 1000 | > 98
O=C(Nc1nc2ccccc2[nH]1)c1ccc(F)c2c(C(=O)C(=O)N3CCN(C(=O)c4ccccc4)CC3)c[nH]c12 [Example 41] | < 1000 | > 98

SMILES | EC50 [nM] | inhibition at 10 µM [%]
NC(=O)c1ccc(F)c2c(C(=O)C(=O)N3CCN(C(=O)c4ccccc4)CC3)c[nH]c12 [Example 42] | < 1000 | > 98
CN(C)CCNC(=O)c1ccc(F)c2c(C(=O)C(=O)N3CCN(C(=O)c4ccccc4)CC3)c[nH]c12 [Example 44] | < 1000 | 97
O=C(NCc1ccccc1)c1ccc(F)c2c(C(=O)C(=O)N3CCN(C(=O)c4ccccc4)CC3)c[nH]c12 [Example 45] | < 1000 | > 98
CONC(=O)c1ccc(F)c2c(C(=O)C(=O)N3CCN(C(=O)c4ccccc4)CC3)c[nH]c12 [Example 46] | < 1000 | > 98
CNC(=O)c1ccc(F)c2c(C(=O)C(=O)N3CCN(C(=O)c4ccccc4)CC3)c[nH]c12 [Example 47] | < 1000 | > 98
O=C(NCCc1c[nH]c2ccccc12)c1ccc(F)c2c(C(=O)C(=O)N3CCN(C(=O)c4ccccc4)CC3)c[nH]c12 [Example 48] | < 1000 | > 98
O=C(NCCc1c[nH]cn1)c1ccc(F)c2c(C(=O)C(=O)N3CCN(C(=O)c4ccccc4)CC3)c[nH]c12 [Example 49] | < 1000 | > 98
O=C(NCc1ccco1)c1ccc(F)c2c(C(=O)C(=O)N3CCN(C(=O)c4ccccc4)CC3)c[nH]c12 [Example 50] | < 1000 | > 98
O=C(NCc1cccs1)c1ccc(F)c2c(C(=O)C(=O)N3CCN(C(=O)c4ccccc4)CC3)c[nH]c12 [Example 51] | < 1000 | > 98
O=C(NCCN1CCOCC1)c1ccc(F)c2c(C(=O)C(=O)N3CCN(C(=O)c4ccccc4)CC3)c[nH]c12 [Example 52] | < 1000 | > 98
O=C(NCc1nc2ccccc2[nH]1)c1ccc(F)c2c(C(=O)C(=O)N3CCN(C(=O)c4ccccc4)CC3)c[nH]c12 [Example 53] | < 1000 | –
O=C(Nc1nn[nH]n1)c1ccc(F)c2c(C(=O)C(=O)N3CCN(C(=O)c4ccccc4)CC3)c[nH]c12 [Example 54] | < 1000 | > 98
CS(=O)(=O)NC(=O)c1ccc(F)c2c(C(=O)C(=O)N3CCN(C(=O)c4ccccc4)CC3)c[nH]c12 [Example 60] | < 1000 | > 98
CS(=O)(=O)NC(=O)c1cccc2c(C(=O)C(=O)N3CCN(C(=O)c4ccccc4)CC3)c[nH]c12 [Example 61] | 1000 to 5000 | 75
O=C(C(=O)N1CCN(C(=O)c2ccccc2)CC1)c1c[nH]c2c(C(=O)NS(=O)(=O)c3ccccc3)cccc12 [Example 62] | 1000 to 5000 | 74
O=C(C(=O)N1CCN(C(=O)c2ccccc2)CC1)c1c[nH]c2c(C(=O)Nc3nnn[nH]3)cccc12 [Example 63] | < 1000 | 96
CNC(=O)c1cccc2c(C(=O)C(=O)N3CCN(C(=O)c4ccccc4)C[C@H]3C)c[nH]c12 [Example 64] | < 1000 | > 98
C[C@@H]1CN(C(=O)c2ccccc2)CCN1C(=O)C(=O)c1c[nH]c2c(C(=O)N(C)C)cccc12 [Example 65] | < 1000 | 70

Source: US6573262B2, “Composition and antiviral activity of substituted indoleoxoacetic piperazine derivatives” (priority 2000, dated 2003)
